Data set [1] deals with T1, BCRP (Homo sapiens, UniProt Q9UNQ0).
T1 sequence (Q9UNQ0 1-655): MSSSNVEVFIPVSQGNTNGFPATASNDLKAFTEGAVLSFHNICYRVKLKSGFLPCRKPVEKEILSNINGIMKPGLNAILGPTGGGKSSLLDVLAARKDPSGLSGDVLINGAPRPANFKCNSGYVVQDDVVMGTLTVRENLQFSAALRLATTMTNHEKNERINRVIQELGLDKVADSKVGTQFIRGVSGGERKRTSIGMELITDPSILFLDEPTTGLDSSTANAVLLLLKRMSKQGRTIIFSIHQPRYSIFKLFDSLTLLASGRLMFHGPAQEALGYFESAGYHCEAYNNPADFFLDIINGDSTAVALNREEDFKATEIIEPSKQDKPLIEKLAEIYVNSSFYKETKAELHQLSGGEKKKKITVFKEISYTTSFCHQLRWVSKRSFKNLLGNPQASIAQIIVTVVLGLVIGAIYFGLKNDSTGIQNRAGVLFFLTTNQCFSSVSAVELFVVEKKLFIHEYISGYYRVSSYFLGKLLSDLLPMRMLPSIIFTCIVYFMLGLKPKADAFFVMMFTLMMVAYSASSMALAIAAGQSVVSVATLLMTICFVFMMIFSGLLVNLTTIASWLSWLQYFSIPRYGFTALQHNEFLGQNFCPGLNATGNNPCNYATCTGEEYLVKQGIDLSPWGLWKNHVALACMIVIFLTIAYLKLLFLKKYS
The following applies: probe substrate pheophorbide A; ref Weiss et al.[15]; cited from earlier work.

In data set [2] the target is T2, OATP1B1 (Homo sapiens, UniProt Q9Y6L6).
T2 sequence (Q9Y6L6 1-691): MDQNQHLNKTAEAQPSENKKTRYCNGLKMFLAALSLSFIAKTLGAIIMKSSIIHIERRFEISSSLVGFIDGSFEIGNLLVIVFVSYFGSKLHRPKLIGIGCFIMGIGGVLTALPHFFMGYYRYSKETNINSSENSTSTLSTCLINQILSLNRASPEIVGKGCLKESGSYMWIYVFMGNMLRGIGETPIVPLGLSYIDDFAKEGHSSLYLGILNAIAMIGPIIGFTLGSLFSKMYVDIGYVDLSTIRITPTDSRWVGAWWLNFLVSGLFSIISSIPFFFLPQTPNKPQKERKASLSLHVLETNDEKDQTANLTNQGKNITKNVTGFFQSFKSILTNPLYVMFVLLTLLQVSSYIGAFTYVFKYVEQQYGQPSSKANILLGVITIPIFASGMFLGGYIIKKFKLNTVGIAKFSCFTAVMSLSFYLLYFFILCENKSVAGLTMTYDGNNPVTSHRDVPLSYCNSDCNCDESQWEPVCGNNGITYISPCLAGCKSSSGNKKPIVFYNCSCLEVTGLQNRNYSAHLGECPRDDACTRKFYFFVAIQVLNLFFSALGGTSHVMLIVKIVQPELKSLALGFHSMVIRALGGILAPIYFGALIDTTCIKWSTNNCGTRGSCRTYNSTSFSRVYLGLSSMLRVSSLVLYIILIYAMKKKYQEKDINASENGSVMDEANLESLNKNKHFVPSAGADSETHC
Kind of data set: OATP1B1 inhibition in transporter-expressing HEK293 cells, [3H]-estradiol 17β-D-glucuronide uptake (IC50 determination). The settings on record: human, HEK293 cells expressing OATP1B1 (with vector control cells), pH 7.4, probe [3H]-estradiol 17β-D-glucuronide (0.02 μM), IC50, determined values from different occasions (OATP1B1), OATP1B1-mediated transport of [3H]-estradiol 17β-D-glucuronide (0.02 μM), HEK293; single occasion. The method, then: OATP1B1, OATP1B3, NTCP and vector control cell lines were cultured and subsequent transporter assays conducted as described above using the same transporter‐specific probe substrates and incubation times. For OATP1B1, the probe substrate was [^3H]‐estradiol 17β‐D‐glucuronide (0.02 μM) incubated for 2 min, with rifamycin SV (100 μM) as positive control inhibitor. For IC50 determinations, the only difference to the method performed above was that the 15‐min pre‐incubation step contained a range of six concentrations of protease inhibitor drug, and subsequent incubations were conducted with the same six concentration levels of drug rather than with a single concentration.

Data set [3] relates to OATP1B1. The settings on record: probe substrate atorvastatin; ref Karlgren et al.[31]; cited from earlier work.
The target in data set [4] is T1, BCRP. Description: Caco-2 unidirectional (B-A) BCRP inhibition assay, [3H]-estrone 3-sulfate transport (IC50 determination). As to the method:
The methodology used was adapted from the previously validated Caco‐2 unidirectional (basolateral to apical; B‐A) BCRP inhibition assay.[13]
The BCRP inhibition experiments were performed between day 18 to 22 post‐seeding. […] After pre‐incubation, transport buffer was removed and the appropriate donor solutions were added to the basolateral donor compartment. […] Receiver solutions (final DMSO concentration of ≤1 % v/v) in transport buffer containing either the corresponding concentration of test inhibitor or DMSO (vehicle control), and the fluorescent cell monolayer integrity marker lucifer yellow (100 μM), were added to the apical compartments (total volume = 90 μL). Incubations were conducted in triplicate wells per assay condition in a heated incubator at 37°C for 90 min. Following the incubation, the amount (pmol) of [^3H]‐estrone 3‐sulfate appearing in the receiver compartment was determined by sampling (50 μL) into a white walled clear bottomed multiwell plate, to which scintillation fluid (200 μL) was added, and then samples counted on a Microbeta2 liquid scintillation counter (PerkinElmer). The quantified amount (derived from disintegrations per minute; DPM) of [^3H]‐estrone 3‐sulfate was subsequently converted to concentration (pmol/mL) and used to calculate apparent permeability (Papp), as described previously.[18]
In general terms: Caco-2 monolayers are a common model of the intestinal barrier.

The target of the next data set is T3, human OAT3 (SLC22A8) (Homo sapiens, UniProt Q8TCC7).
T3 construct: host or cells: HEK293 TransportoCells
T3 sequence (Q8TCC7 1-542): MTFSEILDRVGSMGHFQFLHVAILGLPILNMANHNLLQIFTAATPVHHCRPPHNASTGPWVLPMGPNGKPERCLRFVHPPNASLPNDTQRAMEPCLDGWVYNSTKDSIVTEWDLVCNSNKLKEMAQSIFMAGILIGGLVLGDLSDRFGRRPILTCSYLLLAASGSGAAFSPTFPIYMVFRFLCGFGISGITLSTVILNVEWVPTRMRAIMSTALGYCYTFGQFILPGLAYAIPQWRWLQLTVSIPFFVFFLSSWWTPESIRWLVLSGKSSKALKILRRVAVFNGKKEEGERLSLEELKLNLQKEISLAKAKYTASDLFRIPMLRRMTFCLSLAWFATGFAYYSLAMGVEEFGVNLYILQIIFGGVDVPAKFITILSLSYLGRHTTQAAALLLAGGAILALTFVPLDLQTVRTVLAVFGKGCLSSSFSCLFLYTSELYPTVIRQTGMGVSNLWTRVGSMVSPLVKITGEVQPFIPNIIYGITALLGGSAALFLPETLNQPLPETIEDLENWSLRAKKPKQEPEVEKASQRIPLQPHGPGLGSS
Kind of data set: OAT3 single concentration inhibition screen in HEK293 cells. The settings on record: ≥10x unbound [Cmax]: atazanavir 15 μM, darunavir 10 μM, lopinavir 3 μM, ritonavir 0.1 μM; probe 1 μM. The data set is classed as cell-based.

[5] abbreviates: IC50 mean (BCRP), BCRP-mediated B-A transport of [3H]-estrone 3-sulfate (1 μM), Caco-2, mean (±SD) of occasions, IC50 equates to Ki.

Each structure is given as a SMILES string. Where “and” joins values, the source holds several entries; their conditions need not be identical. Equal values may be shown once. Read-outs that look alike come from different tables or passages of the source.

As usually defined, the IC50 is the concentration that gives 50% inhibition. Lower therefore signals greater potency. Take `COC(=O)N[C@H](C(=O)N[C@@H](Cc1ccccc1)[C@@H](O)CN(Cc1ccc(-c2ccccn2)cc1)NC(=O)[C@@H](NC(=O)OC)C(C)(C)C)C(C)(C)C` [atazanavir]: at BCRP [1], the “Published IC50/Ki (BCRP)” value is 69.1 (pheophorbide A) μM. The same compound displayed an IC50 at 2 min against OATP1B1 [2] of 0.928 µM. Moreover, the “Published IC50/Ki (OATP1B1)” value in the data set on OATP1B1 [3] was 0.91 (atorvastatin) μM. Also, the IC50 was 49.8 µM and 30.3 µM and 51.5 µM and 37.1 µM on BCRP [4]; 42.2 µM against BCRP [4] (setting [5]). The “Inhibition of OAT3-mediated [3H]-estrone 3-sulfate transport, single concentration screen” value at human OAT3 (SLC22A8) is “neither atazanavir, darunavir, lopinavir nor ritonavir inhibited OAT3 transport”.

As for `Cc1cccc(C)c1OCC(=O)N[C@@H](Cc1ccccc1)[C@@H](O)C[C@H](Cc1ccccc1)NC(=O)[C@H](C(C)C)N1CCCNC1=O` [lopinavir], the IC50 on BCRP [4] was 12.7 µM and 18.3 µM and 15.6 µM; against BCRP [4] (setting [5]), 15.5 µM. In addition, the “Inhibition of OAT3-mediated [3H]-estrone 3-sulfate transport, single concentration screen” value at human OAT3 (SLC22A8) is “neither atazanavir, darunavir, lopinavir nor ritonavir inhibited OAT3 transport”.

(Values after article PMC9944867, “Mechanistic in vitro studies indicate that the clinical drug–drug interactions between protease inhibitors and rosuvastatin are driven by inhibition of intestinal BCRP and hepatic OATP1B1 with minimal contribution from OATP1B3, NTCP and OAT3” (Pharmacology Research & Perspectives, 2023).)
